Patent US20060034823A1, “Method of production and use of crotoxin as an analgesic” (priority 2004, published 2006)
Where “and” joins values, the source holds several entries; their conditions need not be identical. Identical values can stand only once. Counter-ions that a name gives are not always drawn. Like-named read-outs stand apart in the source and are kept apart here.

How the values were obtained:
[1] = tested on: pain response in mice induced by Hot Plate; assay type: in vivo, Kunming mice; conditions: for Pain thresholds: Acetylsalicylic acid 400 mg·kg−1; for Pain threshold, Baseline: before drugs; for Pain threshold, After drug administration: crotoxin 44.3 μg·kg−1; for Time lapse before pain response: Dolantin 40000 μg/kg ip
[2] = tested on: acetic acid writhing response in mice; test: animal or person; assay type: in vivo, Kunming mice
Protocol: In the hot-plate test, a animal is positioned on a hot plate and is exposed to a standard heat source, and the time that the animal voluntarily endures the heat, prior to licking its paws, is recorded. In the acid-writhing test, the animal is injected into the intraperitoneal cavity and results in a writhing response. For the tail-flick test the animal's tail is subjected to heat or electrical stimulus and the time taken for the animal to remove its tail away from the noxious stimulus is recorded. Analgesics, particularly opioid analgesics, will prolong these times relative to controls.
The mice were randomly divided into 5 groups (n=10 in each group): saline control, acetylsalicylic acid 400 mg/kg^−1, crotoxin 66.5, 44.3, or 29.5 mcg.kg^−1 −1. Pain threshold was measured 3 h after drug administration.
The mice were randomly divided into 2 groups (n=10 in each group): saline control and crotoxin 0.3 mcg.kg^−1 −1. The effects of crotoxin on pain threshold were measured 1 hour after crotoxin or saline administration.
The mice were randomly divided into 4 groups (n=10 in each group): saline control, crotoxin 44.3 mcg.kg^−1 −1, acetylsalicylic acid (Ace) 300 mg/kg^−1, and crotoxin+acetylsalicylic acid. Acetylsalicylic acid 300 mg/kg^−1 (im) and crotoxin 44.3 mcg.kg^−1 −1 (im) were administrated at the same time. Pain threshold was determined 2 h after crotoxin administration.

[3] = in vivo; cited from earlier work
animal models of pain = test: Crotamine in animal models of pain; assay type: in vivo; conditions: applicant's own studies vs published observations
Source text: The analgesic effect of snake venom proteins has been known since antiquity and several authors have pointed out the efficiency of the administration of crude cobra or rattlesnake venoms in the treatment of trigeminal neuralgias, tabetic and pain caused by tumors. In the cases of tumoral pains, the patients could be maintained without the administration of morphine in 70% of the cases. Obviously, at the time, crude venoms were employed without even an adequate knowledge of the source or mechanism. Sometimes venoms from cobras captured in India or South Africa were employed indistinctly (see, Haast, U.S. Pat. No. 4,341,762). […] With respect to crotamine, it was assumed that this represented the anti-nociceptive component of Crotalus durissus terrificus venom.

## CC(=O)Oc1ccccc1C(=O)O [Acetylsalicylic acid, acetylsalicylic acid]
[1]; 1 h after administration
  Pain thresholds: 28.12 ± 6.95 s
[1]; 2 h after administration
  Pain thresholds: 24.50 ± 14.14 s
[1]; 3 h after administration
  Pain thresholds: 26.22 ± 14.32 s
[1]; Baseline
  Pain thresholds: 17.36 ± 2.72 s
[2]; Acetylsalicylic acid 400 mg·kg−1, 3 h after drug administration
  The number of writhings after administration: 8.80 ± 6.36 times/10 min
[2]; Mus musculus, 3 h, read-out: Percentage inhibition compared with control group
  inhibition at 400 mg/kg: 70.1%
[2]; acetylsalicylic acid 300 mg/kg (ip)
  effect on the analgesic effects of crotoxin: significantly enhanced
[2]; acetylsalicylic acid 300 mg/kg, crotoxin 44.3 mcg/kg, given at the same time
  analgesic effect, acetylsalicylic acid study: significant analgesic effects
[2]; crotoxin 44.3 μg·kg−1 and acetylsalicylic acid (table: 0.3 mg·kg−1; text: 300 mg/kg) given at the same time, 2 h after crotoxin
  The number of writhings: 12.13 ± 9.04 times/10 min

## CN1[C@@H]2CC[C@H]1C[C@@H](OC(=O)C(CO)c1ccccc1)C2 (stereo partly shown) [Atropine, atropine]
[1]; atropine 0.5 mg/kg (im)
  effect of atropine alone on the pain threshold: no significant effect
[1]; atropine study
  Pain threshold, Baseline: 16.87 ± 3.10 s
[1]; atropine 0.5 mg·kg−1 or NS (im) 1.5 h after crotoxin, determined 1.5 h after atropine
  Pain threshold, After drug administration: 18.46 ± 3.25 s

## CCOC(=O)C1(c2ccccc2)CCN(C)CC1 [Dolantin, Meperidine hydrochloride]
[1]; 30 min after drug, hydrochloride
  Time lapse before pain response: 56 s and 56.14 s
[1]; 60 min after drug
  Time lapse before pain response: 55.49 s
[1]; 90 min after drug, hydrochloride
  Time lapse before pain response: 36 s and 36.36 s
[1]; 120 min after drug, hydrochloride
  Time lapse before pain response: 34 s and 34.03 s
[1]; Pre-drug, hydrochloride
  Time lapse before pain response: 13.2 s and 13.20 s
[3]
  analgesic potency relative to morphine: one-tenth as potent an analgesic as morphine
  duration: 2 to 4 h
  onset of activity: 10 to 45 min

## C=CCN1CC[C@]23c4c5ccc(O)c4O[C@H]2C(=O)CC[C@@]3(O)[C@H]1C5 [Naloxone, Naloxone hydrochloride]
[1]; naloxone 3 mg·kg−1 or NS (i.p.) 2.5 hours after crotoxin, determined 30 minutes after naloxone
  Pain threshold, After drug administration: 19.04 ± 4.88 s
[1]; naloxone 3 mg/kg (ip)
  effect of naloxone alone on the pain threshold: no significant influence
[1]; naloxone (ip)
  effect on the analgesia induced by crotoxin: had no effect
[1]; naloxone study
  Pain threshold, Baseline: 16.97 ± 3.64 s

## crotamine (YKQCHKKGGHCFPKEKICLPPSSDFGKMDCRWRWKCCKKGSG; UniProt Q9PWF3 23-64, looked up)
Animal models of pain
  antinociceptive properties: failed to confirm these published observations
